Measurements: ChEMBL document CHEMBL5528056, “BAY-9835: Discovery of the First Orally Bioavailable ADAMTS7 Inhibitor” (J Med Chem, 2024)
≈ marks a conversion by molar mass, not a printed value.

Columns and labels:
[1] = Clearance in Wistar rat at 0.3 mg/kg, iv measured for >24 hrs by HPLC-MS/MS analysis; format: ADME, organism-based; conditions: in vivo
[2] = Half life in Beagle dog at 1 mg/kg, po measured for >24 hrs by HPLC-MS/MS analysis; format: ADME, organism-based, Canis lupus familiaris; conditions: in vivo
[3] = Half life in Beagle dog at 0.3 mg/kg, iv measured for >24 hrs by HPLC-MS/MS analysis; format: ADME, organism-based, Canis lupus familiaris; conditions: in vivo
[4] = Dose normalized AUC in Wistar rat at 0.3 mg/kg, iv measured for >24 hrs by HPLC-MS/MS analysis; format: ADME, organism-based; conditions: in vivo
[5] = Half life in Wistar rat at 0.3 mg/kg, iv measured for >24 hrs by HPLC-MS/MS analysis; format: ADME, organism-based; conditions: in vivo
[6] = Clearance in Beagle dog at 0.3 mg/kg, iv measured for >24 hrs by HPLC-MS/MS analysis; format: ADME, organism-based, Canis lupus familiaris; conditions: in vivo
[7] = Selectivity ratio of IC50 for ADAMTS12 (unknown origin) to IC50 for ADAMTS7 (unknown origin)
[8] = Oral bioavailability in C57bl6 mouse at 1 mg/kg measured for >24 hrs by HPLC-MS/MS analysis; format: ADME, organism-based; conditions: in vivo
[9] = Dose normalized AUC in C57bl6 mouse at 0.3 mg/kg, iv measured for >24 hrs by HPLC-MS/MS analysis; format: ADME, organism-based; conditions: in vivo
[10] = Fraction unbound in human plasma; format: ADME, cell-free
Cytochrome P450 3A4 = Cytochrome P450 3A4 (Homo sapiens, UniProt P08684); assay: Induction of CYP3A4 in human hepatocytes assessed as threshold concentration incubated for 48 hrs by qPCR analysis; format: ADME, cell-based, Hepatocyte
[11] = Fraction unbound in mouse plasma; format: ADME, cell-free
[12] = Volume of distribution at steady state in Beagle dog at 0.3 mg/kg, iv measured for >24 hrs by HPLC-MS/MS analysis; format: ADME, organism-based, Canis lupus familiaris; conditions: in vivo
[13] = molecular target: A disintegrin and metalloproteinase with thrombospondin motifs 7 (Mus musculus, UniProt Q68SA9); assay: Inhibition of recombinant mouse ADAMTS7 using HiLyteFluor-488 DELSSMVLELRGLRT-K(QXL520)-E-NH2 as substrate incubated for 120 mins by FRET assay
Cytochrome P450 1A2 = molecular target: T1, Cytochrome P450 1A2 (Homo sapiens, UniProt P05177); assay: Inhibition of CYP1A2 in human liver microsomes using phenacetin as substrate upto 20 uM by LC-MS/MS analysis; format: ADME, Microsome
T1 sequence (P05177 whole entry): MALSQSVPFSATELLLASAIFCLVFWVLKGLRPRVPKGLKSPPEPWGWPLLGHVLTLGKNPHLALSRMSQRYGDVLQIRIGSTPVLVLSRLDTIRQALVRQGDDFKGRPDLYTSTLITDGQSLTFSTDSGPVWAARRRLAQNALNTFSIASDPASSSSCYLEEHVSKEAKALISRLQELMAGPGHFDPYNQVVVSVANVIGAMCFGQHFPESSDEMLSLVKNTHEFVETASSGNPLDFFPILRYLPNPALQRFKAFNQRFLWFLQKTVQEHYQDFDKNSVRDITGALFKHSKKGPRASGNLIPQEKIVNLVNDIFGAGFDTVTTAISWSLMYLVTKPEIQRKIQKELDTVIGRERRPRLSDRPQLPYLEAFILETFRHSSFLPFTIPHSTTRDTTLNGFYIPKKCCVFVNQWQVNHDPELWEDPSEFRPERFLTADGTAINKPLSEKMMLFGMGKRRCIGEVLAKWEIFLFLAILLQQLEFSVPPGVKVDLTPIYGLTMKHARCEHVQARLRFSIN

[14] = Half life in C57bl6 mouse at 0.3 mg/kg, iv measured for >24 hrs by HPLC-MS/MS analysis; format: ADME, organism-based; conditions: in vivo
[15] = Selectivity ratio of IC50 for ADAM17 (unknown origin) to IC50 for ADAMTS7 (unknown origin)
Cytochrome P450 2C8 = molecular target: T2, Cytochrome P450 2C8 (Homo sapiens, UniProt P10632); assay: Inhibition of CYP2C8 in human liver microsomes using diclofenac as substrate upto 20 uM by LC-MS/MS analysis; format: ADME, Microsome
T2 sequence (P10632 whole entry): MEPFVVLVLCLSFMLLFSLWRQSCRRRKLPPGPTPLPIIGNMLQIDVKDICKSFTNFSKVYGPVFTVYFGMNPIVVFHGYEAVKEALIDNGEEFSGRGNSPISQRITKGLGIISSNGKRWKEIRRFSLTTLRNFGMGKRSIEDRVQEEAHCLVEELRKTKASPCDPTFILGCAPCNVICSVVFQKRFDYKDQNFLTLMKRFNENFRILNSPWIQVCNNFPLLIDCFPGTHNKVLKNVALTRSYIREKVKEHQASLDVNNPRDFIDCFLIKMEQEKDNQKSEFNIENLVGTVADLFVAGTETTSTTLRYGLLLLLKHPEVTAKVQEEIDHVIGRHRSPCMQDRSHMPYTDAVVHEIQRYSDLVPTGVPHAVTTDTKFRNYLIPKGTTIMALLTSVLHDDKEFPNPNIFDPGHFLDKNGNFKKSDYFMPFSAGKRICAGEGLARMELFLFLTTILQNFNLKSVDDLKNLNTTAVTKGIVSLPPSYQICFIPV

[16] = molecular target: Sodium channel protein type 5 subunit alpha (Homo sapiens, UniProt Q14524); assay: Inhibition of hNaV1.5 upto 10 uM by voltage clamp method; format: toxicity
[17] = Tmax in C57bl6 mouse at 1 mg/kg, po measured for >24 hrs by HPLC-MS/MS analysis; format: ADME, organism-based; conditions: in vivo
[18] = Fraction unbound in dog plasma; format: ADME, cell-free, Canis lupus familiaris
[19] = Solubility of compound in water at pH 7 measured after 24 hrs by HPLC analysis; format: physicochemical; conditions: buffer, pH 7, 24 h
[20] = Selectivity ratio of IC50 for ADAMTS4 (unknown origin) to IC50 for ADAMTS7 (unknown origin)
[21] = Solubility of compound in FeSSIF measured after 24 hrs by HPLC analysis; format: ADME; conditions: simulated gi fluid
Cytochrome P450 2D6 = Cytochrome P450 2D6 (Homo sapiens, UniProt P10635); assay: Inhibition of CYP2D6 in human liver microsomes using dextromethorphan as substrate upto 20 uM by LC-MS/MS analysis; format: ADME, Microsome
[22] = Volume of distribution at steady state in Wistar rat at 0.3 mg/kg, iv measured for >24 hrs by HPLC-MS/MS analysis; format: ADME, organism-based; conditions: in vivo
[23] = Selectivity ratio of IC50 for MMP12 (unknown origin) to IC50 for ADAMTS7 (unknown origin)
[24] = molecular target: A disintegrin and metalloproteinase with thrombospondin motifs 7 (Rattus norvegicus, UniProt Q1EHB3); assay: Inhibition of recombinant rat ADAMTS7 using HiLyteFluor-488 DELSSMVLELRGLRT-K(QXL520)-E-NH2 as substrate incubated for 120 mins by FRET assay
[25] = Solubility of compound in FaSSIF measured after 24 hrs by HPLC analysis; format: ADME; conditions: simulated gi fluid
[26] = Selectivity ratio of IC50 for C-terminal 6His-tagged recombinant human ADAM8 (1 to 497 residues) using Dabcyl-SSNQLQRR-Glu(EDANS)-NH2 as substrate to IC50 for ADAMTS7 (unknown origin)
[27] = Dose normalized AUC in Beagle dog at 0.3 mg/kg, iv measured for >24 hrs by HPLC-MS/MS analysis; format: ADME, organism-based, Canis lupus familiaris; conditions: in vivo

Cytochrome P450 3A4, sequence (P08684 whole entry): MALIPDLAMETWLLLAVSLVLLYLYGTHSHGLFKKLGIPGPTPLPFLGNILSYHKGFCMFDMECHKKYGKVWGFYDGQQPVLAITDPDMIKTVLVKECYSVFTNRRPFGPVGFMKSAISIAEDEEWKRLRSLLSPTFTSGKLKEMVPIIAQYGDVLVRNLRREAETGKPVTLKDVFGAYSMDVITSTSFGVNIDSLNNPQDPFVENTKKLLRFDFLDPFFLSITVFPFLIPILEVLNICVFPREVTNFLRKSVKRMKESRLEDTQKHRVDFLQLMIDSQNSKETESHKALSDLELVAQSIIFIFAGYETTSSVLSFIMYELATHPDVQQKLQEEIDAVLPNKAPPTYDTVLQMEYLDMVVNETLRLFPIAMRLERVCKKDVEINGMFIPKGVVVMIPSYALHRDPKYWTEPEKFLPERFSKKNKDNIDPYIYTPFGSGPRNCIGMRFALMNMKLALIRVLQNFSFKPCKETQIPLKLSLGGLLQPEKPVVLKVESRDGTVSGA
A disintegrin and metalloproteinase with thrombospondin motifs 7 (Mus musculus, UniProt Q68SA9), sequence (Q68SA9 whole entry): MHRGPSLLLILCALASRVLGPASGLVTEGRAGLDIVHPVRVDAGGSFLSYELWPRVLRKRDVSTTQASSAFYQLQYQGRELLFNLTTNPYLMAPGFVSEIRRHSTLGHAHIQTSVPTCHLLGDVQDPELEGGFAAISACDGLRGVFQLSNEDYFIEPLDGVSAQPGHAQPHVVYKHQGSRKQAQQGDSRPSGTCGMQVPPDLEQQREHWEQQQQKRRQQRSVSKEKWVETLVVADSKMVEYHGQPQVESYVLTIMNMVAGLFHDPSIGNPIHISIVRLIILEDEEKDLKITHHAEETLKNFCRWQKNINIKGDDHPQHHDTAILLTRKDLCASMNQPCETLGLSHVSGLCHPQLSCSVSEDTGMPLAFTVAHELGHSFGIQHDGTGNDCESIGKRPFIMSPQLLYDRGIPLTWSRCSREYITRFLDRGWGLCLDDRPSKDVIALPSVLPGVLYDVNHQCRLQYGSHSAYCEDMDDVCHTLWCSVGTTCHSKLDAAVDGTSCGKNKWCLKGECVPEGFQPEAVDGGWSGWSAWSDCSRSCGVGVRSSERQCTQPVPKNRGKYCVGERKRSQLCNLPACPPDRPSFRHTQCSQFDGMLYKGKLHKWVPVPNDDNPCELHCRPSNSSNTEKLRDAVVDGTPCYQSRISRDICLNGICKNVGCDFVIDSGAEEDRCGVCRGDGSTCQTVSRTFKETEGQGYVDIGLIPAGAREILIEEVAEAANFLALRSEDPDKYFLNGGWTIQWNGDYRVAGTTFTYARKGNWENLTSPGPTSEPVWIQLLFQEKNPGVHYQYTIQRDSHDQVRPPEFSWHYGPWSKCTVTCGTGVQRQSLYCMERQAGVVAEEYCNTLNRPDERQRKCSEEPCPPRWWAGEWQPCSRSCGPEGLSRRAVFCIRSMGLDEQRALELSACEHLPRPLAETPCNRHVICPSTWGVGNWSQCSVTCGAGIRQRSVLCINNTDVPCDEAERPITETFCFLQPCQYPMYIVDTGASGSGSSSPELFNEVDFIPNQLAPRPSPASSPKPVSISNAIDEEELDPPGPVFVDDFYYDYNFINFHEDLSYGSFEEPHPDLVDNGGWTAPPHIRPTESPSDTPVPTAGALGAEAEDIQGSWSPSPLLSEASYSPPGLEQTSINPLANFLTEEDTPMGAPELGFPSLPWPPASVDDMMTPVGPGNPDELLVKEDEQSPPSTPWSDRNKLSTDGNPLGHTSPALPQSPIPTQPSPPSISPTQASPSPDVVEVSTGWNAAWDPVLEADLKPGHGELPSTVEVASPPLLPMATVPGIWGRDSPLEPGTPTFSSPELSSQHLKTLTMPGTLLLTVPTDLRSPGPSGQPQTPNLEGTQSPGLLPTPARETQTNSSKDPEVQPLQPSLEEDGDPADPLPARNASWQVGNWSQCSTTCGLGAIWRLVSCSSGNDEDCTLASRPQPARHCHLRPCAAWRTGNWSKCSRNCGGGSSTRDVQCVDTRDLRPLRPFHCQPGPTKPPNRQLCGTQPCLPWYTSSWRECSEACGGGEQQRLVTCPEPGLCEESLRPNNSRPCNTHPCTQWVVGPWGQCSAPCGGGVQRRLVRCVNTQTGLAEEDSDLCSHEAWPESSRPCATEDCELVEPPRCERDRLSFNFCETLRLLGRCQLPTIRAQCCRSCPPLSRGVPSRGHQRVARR
Cytochrome P450 2D6, sequence (P10635 whole entry): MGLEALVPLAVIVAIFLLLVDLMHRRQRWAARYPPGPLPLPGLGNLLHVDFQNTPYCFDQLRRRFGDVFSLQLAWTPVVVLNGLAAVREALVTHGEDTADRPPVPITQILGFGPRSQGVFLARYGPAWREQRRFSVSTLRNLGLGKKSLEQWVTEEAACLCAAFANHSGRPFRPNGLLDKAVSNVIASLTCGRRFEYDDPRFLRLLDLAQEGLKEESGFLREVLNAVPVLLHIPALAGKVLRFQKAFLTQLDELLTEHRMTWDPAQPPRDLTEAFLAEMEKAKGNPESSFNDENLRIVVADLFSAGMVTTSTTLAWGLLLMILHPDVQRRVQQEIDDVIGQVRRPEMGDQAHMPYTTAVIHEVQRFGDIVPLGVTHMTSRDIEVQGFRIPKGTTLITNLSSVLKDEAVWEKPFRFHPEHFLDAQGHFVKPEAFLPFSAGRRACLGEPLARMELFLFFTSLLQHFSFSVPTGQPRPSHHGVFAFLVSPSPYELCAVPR
A disintegrin and metalloproteinase with thrombospondin motifs 7 (Rattus norvegicus, UniProt Q1EHB3), sequence (Q1EHB3 whole entry): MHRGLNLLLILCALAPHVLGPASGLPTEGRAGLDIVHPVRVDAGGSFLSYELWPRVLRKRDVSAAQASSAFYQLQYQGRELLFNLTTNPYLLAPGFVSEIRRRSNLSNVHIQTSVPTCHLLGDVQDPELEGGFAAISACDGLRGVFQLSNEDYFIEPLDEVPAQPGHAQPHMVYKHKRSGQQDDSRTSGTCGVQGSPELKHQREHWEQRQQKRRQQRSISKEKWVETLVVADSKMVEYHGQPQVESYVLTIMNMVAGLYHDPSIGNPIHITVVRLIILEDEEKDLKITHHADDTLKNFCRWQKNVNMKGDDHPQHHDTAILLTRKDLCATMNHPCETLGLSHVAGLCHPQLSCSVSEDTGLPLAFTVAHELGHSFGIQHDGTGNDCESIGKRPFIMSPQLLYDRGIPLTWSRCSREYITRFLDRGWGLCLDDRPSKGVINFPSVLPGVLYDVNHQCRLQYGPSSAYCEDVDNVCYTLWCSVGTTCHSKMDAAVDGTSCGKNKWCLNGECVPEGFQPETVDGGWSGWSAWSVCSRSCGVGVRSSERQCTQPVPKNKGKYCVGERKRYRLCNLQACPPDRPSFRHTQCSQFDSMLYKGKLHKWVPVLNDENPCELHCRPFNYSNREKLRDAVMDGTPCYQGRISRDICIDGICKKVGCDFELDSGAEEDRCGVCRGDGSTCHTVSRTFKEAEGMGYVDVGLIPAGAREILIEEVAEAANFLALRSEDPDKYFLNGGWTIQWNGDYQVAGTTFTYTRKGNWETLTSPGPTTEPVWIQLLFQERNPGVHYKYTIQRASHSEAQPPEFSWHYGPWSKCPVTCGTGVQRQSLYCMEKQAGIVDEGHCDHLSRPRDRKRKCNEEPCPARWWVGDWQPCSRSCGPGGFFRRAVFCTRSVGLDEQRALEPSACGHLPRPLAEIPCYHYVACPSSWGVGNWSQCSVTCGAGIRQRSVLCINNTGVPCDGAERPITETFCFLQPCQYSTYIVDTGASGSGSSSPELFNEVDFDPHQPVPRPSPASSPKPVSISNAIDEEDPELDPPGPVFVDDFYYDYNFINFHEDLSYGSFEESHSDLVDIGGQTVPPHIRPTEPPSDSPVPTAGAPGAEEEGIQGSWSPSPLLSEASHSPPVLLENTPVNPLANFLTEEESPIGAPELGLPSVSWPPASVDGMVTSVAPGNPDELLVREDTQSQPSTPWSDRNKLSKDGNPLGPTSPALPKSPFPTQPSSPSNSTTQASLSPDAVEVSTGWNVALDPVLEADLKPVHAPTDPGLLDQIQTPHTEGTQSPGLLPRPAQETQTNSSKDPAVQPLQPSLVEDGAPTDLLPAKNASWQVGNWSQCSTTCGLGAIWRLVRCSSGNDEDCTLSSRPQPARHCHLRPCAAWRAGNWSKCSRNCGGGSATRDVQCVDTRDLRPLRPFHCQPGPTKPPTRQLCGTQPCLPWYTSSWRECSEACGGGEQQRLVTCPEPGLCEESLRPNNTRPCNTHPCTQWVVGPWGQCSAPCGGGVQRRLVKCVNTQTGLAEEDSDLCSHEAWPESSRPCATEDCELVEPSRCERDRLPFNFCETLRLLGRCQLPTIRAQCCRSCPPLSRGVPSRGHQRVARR

## Cn1nccc1[C@]1(CNC(=O)c2ccc(F)c(F)c2-c2ccc(C(F)(F)F)cc2)NC(=O)NC1=O
[1]
  CL: 0.55 L/h/kg
[2]
  t1/2: 25 h
[3]
  t1/2: 22 h
[4]
  AUC/dose: 3.1 kg·h/L
[5]
  t1/2: 3.6 h
[6]
  CL: 0.02 L/h/kg
[7]
  Ratio IC50: 5
[8]
  bioavailability: 100%
[9]
  AUC/dose: 1.15 kg·h/L
[10]
  Fu: 15%
Cytochrome P450 3A4
  Activity: 18 µM
[11]
  Fu: 11%
[12]
  Vdss: 0.4 L/kg
[13]
  IC50: 0.008 µM
Cytochrome P450 1A2
  inhibition (INH): Not Active
[14]
  t1/2: 2.1 h
[15]
  Ratio IC50: 962
Cytochrome P450 2C8
  inhibition (INH): Not Active
[16]
  inhibition (INH): Not Active
[17]
  Tmax: 1 h
[18]
  Fu: 5%
[19]
  solubility: 0.135 mg/mL (≈ 274 µM)
[20]
  Ratio IC50: 1120
[21]
  solubility: 0.513 mg/mL (≈ 1040 µM)
Cytochrome P450 2D6
  inhibition (INH): Not Active
[22]
  Vdss: 1.2 L/kg
[23]
  Ratio IC50: 896
[24]
  IC50: 0.027 µM
[25]
  solubility: 0.297 mg/mL (≈ 602 µM)
[26]
  Ratio IC50: 375
[27]
  AUC/dose: 88 kg·h/L
